Tests used:
Influenza A virus [1] = format: functional, organism-based; conditions: A/HK/68 (H3N2), MDCK
Influenza A virus [2] = format: functional, organism-based, A/WSN/33 (H1N1); conditions: mdck
Influenza A virus [3] = format: functional, organism-based, A/WSN/33; conditions: mdck
Influenza A virus [4] = format: functional, organism-based; conditions: A/WSN/33, MDCK, 48 h
Influenza A virus [5] = format: functional, organism-based; conditions: A/WSN/33, MDCK, 48 h; remark: listed apart in the source
Influenza A virus [6] = format: functional, organism-based, A/WSN/33; conditions: mdck; remark: listed apart in the source
Influenza A virus [7] = format: functional, organism-based, A/WSN/33; conditions: mdck; remark: listed apart in the source
Influenza A virus [8] = format: functional, organism-based, A/WSN/33; conditions: mdck; remark: listed apart in the source
Influenza A virus [9] = format: functional, organism-based, A/WSN/33; conditions: mdck; remark: listed apart in the source
Influenza A virus [10] = format: functional, organism-based, A/WSN/33; conditions: mdck; remark: listed apart in the source
Influenza A virus [11] = test: Antiviral activity against influenza A virus harboring wild type M2 ion channel infected in MDCK cells assessed as viral growth inhibition preincubated with cells for 30 mins followed by viral infection and measured after 72 hrs by CCK-8 assay; format: functional, organism-based

With Cc1cc(/C(=N\O)[C@@H]2C[C@@H]3C[C@H](C2C)C3(C)C)sc1C (stereo not given in full) as the compound, how does the EC50 (Influenza A virus [1]) read?
Its EC50 is 4.84 µM.

And the EC50 (Influenza A virus [2])?
The EC50 was 30.2 µM.

Which results are given for COc1ccc(CNC23CC4CC(CC(C4)C2)C3)c(O)c1?
EC50 (Influenza A virus [3]): 1.13 µM; EC50 (Influenza A virus [4]): 8.74 µM

What does the source list for Cc1cc(/C(=N\O)[C@@H]2C[C@@H]3C[C@H](C2C)C3(C)C)sc1Br (stereo not given in full)?
EC50 (Influenza A virus [1]): 7.11 µM; EC50 (Influenza A virus [2]): 5.97 µM

CC1[C@H]2C[C@@H](C[C@H]1/C(=N/O)c1cc(Cl)c(Cl)s1)C2(C)C (stereo not given in full) was tested. Which EC50 (Influenza A virus [1]) did it give?
The EC50 was 9.44 µM.

What about the EC50 (Influenza A virus [2]) of the same compound?
The EC50 was 10.2 µM.

How did the EC50 (Influenza A virus [1]) turn out when Cc1csc(/C(=N\O)[C@@H]2C[C@@H]3C[C@H](C2C)C3(C)C)c1 (stereo not given in full) was run?
Its EC50 is 10.8 µM.

And the EC50 (Influenza A virus [2])?
Its EC50 is 14.8 µM.

What does the source list for COc1ccc(CNc2ccc(C34CC5CC(CC(C5)C3)C4)cc2)c(O)c1?
EC50 (Influenza A virus [3]): 0.66 µM; EC50 (Influenza A virus [4]): 8.04 µM; EC50 (Influenza A virus [5]): 0.66 µM; EC50 (Influenza A virus [6]): 17.4 µM; EC50 (Influenza A virus [7]): 21.6 µM; EC50 (Influenza A virus [8]): 22.5 µM; EC50 (Influenza A virus [9]): 48 µM; EC50 (Influenza A virus [10]): 55 µM

COc1ccc(CNC23CC4C5CC6C7CC8CC6C(C5C2)C(C8)(C3)C74)c(O)c1 was tested. Which EC50 (Influenza A virus [3]) did it give?
The EC50 was 8.1 µM.

With COc1ccc(CNC23CC4C5CC6CC4C(C2)C(C6)C5C3)c(O)c1 as the compound, how does the EC50 (Influenza A virus [3]) read?
The EC50 was 0.29 µM.

What about the EC50 (Influenza A virus [4]) of the same compound?
Its EC50 is 22 µM.

And the EC50 (Influenza A virus [5])?
The EC50 was 0.29 µM.

And the EC50 (Influenza A virus [6])?
The EC50 was 21.2 µM.

What about the EC50 (Influenza A virus [7]) of the same compound?
The EC50 was 17.3 µM.

What about the EC50 (Influenza A virus [8]) of the same compound?
Its EC50 is 38.4 µM.

And the EC50 (Influenza A virus [9])?
The EC50 was 55.8 µM.

What about the EC50 (Influenza A virus [10]) of the same compound?
Its EC50 is 47.5 µM.

CC1[C@H]2C[C@@H](C[C@H]1/C(=N/O)c1cccs1)C2(C)C (stereo not given in full) was tested. Which EC50 (Influenza A virus [1]) did it give?
Its EC50 is 12.4 µM.

And the EC50 (Influenza A virus [2])?
Its EC50 is 11.8 µM.

How did the EC50 (Influenza A virus [1]) turn out when Cc1cc(/C(=N\O)[C@@H]2C[C@@H]3C[C@H](C2C)C3(C)C)sc1Cl (stereo not given in full) was run?
Its EC50 is 3.29 µM.

What about the EC50 (Influenza A virus [2]) of the same compound?
The EC50 was 2.45 µM.

With CC1(C)[C@@H]2CC[C@@]1(C)[C@@H](CN)C2 [listing 1 of 2 here] as the compound, how does the IC50 (Influenza A virus [11]; mdck) read?
The IC50 was 0.49 µM.

How did the IC50 (Influenza A virus [11]; Influenza A virus, MDCK) turn out when CC(N)[C@H]1C[C@H]2CC[C@]1(C)C2(C)C (stereo not given in full) was run?
Its IC50 is 0.1 µM.

How did the IC50 (Influenza A virus [11]; Influenza A virus, MDCK) turn out when CC1(C)[C@@H]2CC[C@@]1(C)[C@@H](CN)C2 [listing 2 of 2 here] was run?
Its IC50 is 0.29 µM.

Which IC50 (Influenza A virus [11]; Influenza A virus, MDCK) does the source give for C[C@H]1[C@H](N)C[C@@H]2C[C@H]1C2(C)C here?
Its IC50 is 0.12 µM.

What does the source list for COc1ccc(CNC(C)(C)C23CC4CC(CC(C4)C2)C3)c(O)c1?
EC50 (Influenza A virus [3]): 0.09 µM; EC50 (Influenza A virus [4]): 20.9 µM; EC50 (Influenza A virus [5]): 0.13 µM; EC50 (Influenza A virus [6]): 19.9 µM; EC50 (Influenza A virus [7]): 1.8 µM; EC50 (Influenza A virus [8]): 43.9 µM; EC50 (Influenza A virus [9]): 19.2 µM

Which EC50 (Influenza A virus [1]) does the source give for Cc1ccc(/C(=N\O)[C@@H]2C[C@@H]3C[C@H](C2C)C3(C)C)s1 (stereo not given in full) here?
Its EC50 is 29.1 µM.

What about the EC50 (Influenza A virus [2]) of the same compound?
Its EC50 is 11.9 µM.

With NC12CC3CC(CC(C3)C1)C2 [AMANTADINE] as the compound, how does the IC50 (Influenza A virus [11]; Influenza A virus, MDCK) read?
Its IC50 is 0.5 µM.
